Results from patent US7417156B2, “Orally active, antimalarial, anticancer, artemisinin-derived trioxane dimers” (Johns Hopkins University, priority 2002, dated 2008).

Key:
Assay in all cases: NCI 60 cell line panel screen (SRB)
Assay type in all cases: cell-based, human
NCI-H522 = conditions: for Log10TGI50: NCI-H522 (Non-Small Cell Lung Cancer), TGI: PG=0; for Log10GI50: Non-Small Cell Lung Cancer, NCI-H522; for Log10LC50: NCI-H-522 (Non-Small Cell Lung Cancer), LC50: PG=−50
IGROVI = conditions: for Log10TGI50 / Log10LC50: IGROVI (Ovarian Cancer); for Log10TGI50: TGI: PG=0; for Log10GI50: Ovarian Cancer, IGROVI; for Log10LC50: LC50: PG=−50
RXF 393 = conditions: for Log10TGI50 / Log10LC50: RXF 393 (Renal Cancer); for Log10TGI50: TGI: PG=0; for Log10LC50: LC50: PG=−50; for Log10GI50: Renal Cancer, RXF 393
EKVX = conditions: for Log10TGI50: TGI: PG=0; for Log10GI50: Non-Small Cell Lung Cancer, EKVX
M14 = conditions: for Log10TGI50: M-14 (Melanoma), TGI: PG=0; for Log10GI50: Melanoma, M14; for Log10LC50: M14 (Melanoma), LC50: PG=−50
SK-OV-3 = tested on: SK-OV-3
BT-549 = conditions: for Log10TGI50 / Log10LC50: BT-549 (Breast Cancer); for Log10TGI50: TGI: PG=0; for Log10LC50: LC50: PG=−50; for Log10GI50: Breast Cancer, BT-549
SK-MEL-2 = conditions: for Log10GI50: Melanoma, SK-MEL-2; for Log10TGI50: SK-MEL-2 (Melanoma), TGI: PG=0; for Log10LC50: SK-MEL2 (Melanoma), LC50: PG=−50
MALME-3M = conditions: for Log10TGI50 / Log10LC50: MALME-3M (Melanoma); for Log10TGI50: TGI: PG=0; for Log10LC50: LC50: PG=−50
NCI/ADR-RES = conditions: for Log10GI50: Breast Cancer, NCI/ADR-RES; for Log10TGI50 / Log10LC50: NCI/ADR-RES (Breast Cancer); for Log10TGI50: TGI: PG=0; for Log10LC50: LC50: PG=−50
NCI-H23 = conditions: for Log10TGI50 / Log10LC50: NCI-H23 (Non-Small Cell Lung Cancer); for Log10TGI50: TGI: PG=0; for Log10LC50: LC50: PG=−50; for Log10GI50: Non-Small Cell Lung Cancer, NCI-H23
HOP-62 = conditions: for Log10TGI50 / Log10LC50: HOP-62 (Non-Small Cell Lung Cancer); for Log10TGI50: TGI: PG=0; for Log10GI50: Non-Small Cell Lung Cancer, HOP-62; for Log10LC50: LC50: PG=−50
HCT-116 = conditions: for Log10TGI50 / Log10LC50: HCT-116 (Colon Cancer); for Log10TGI50: TGI: PG=0; for Log10GI50: Colon Cancer, HCT-116; for Log10LC50: LC50: PG=−50
CAKI-1 = conditions: for Log10LC50: LC50: PG=−50
SF-268 = tested on: SF-268
SF-539 = conditions: for Log10GI50: CNS Cancer, SF-539; for Log10LC50: LC50: PG=−50
MDA-MB231/ATCC = conditions: for Log10GI50: Breast Cancer, MDA-MB231/ATCC; for Log10TGI50: TGI: PG=0
SNB-19 = conditions: for Log10GI50: CNS Cancer, SNB-19; for Log10LC50 / Log10TGI50: SNB-19 (CNS Cancer); for Log10LC50: LC50: PG=−50; for Log10TGI50: TGI: PG=0
[1] = EKVX (Non-Small Cell Lung Cancer)

Row | Structure (SMILES) | Log10TGI50 (NCI-H522) [log10M] | Log10GI50 (NCI-H522) | Log10TGI50 (IGROVI) [log10M] | Log10GI50 (IGROVI) | Log10TGI50 (RXF 393) [log10M] | Log10TGI50 (M14) [log10M] | Log10TGI50 (BT-549) [log10M] | Log10GI50 (SK-MEL-2) | Log10TGI50 (SK-MEL-2) [log10M] | Log10TGI50 (MALME-3M) [log10M] | Log10GI50 (NCI/ADR-RES) | Log10TGI50 (NCI/ADR-RES) [log10M] | Log10TGI50 (NCI-H23) [log10M] | Log10TGI50 (HOP-62) [log10M] | Log10GI50 (HOP-62) | Log10TGI50 (HCT-116) [log10M] | Log10LC50 (IGROVI) [log10M] | Log10LC50 (RXF 393) [log10M] | Log10GI50 (RXF 393) | Log10LC50 (SK-MEL-2) [log10M] | also measured
1 | CC1CCC2C(C)C(CC(COCC(=O)O)CC3OC4OC5(C)CCC6C(C)CCC(C3C)C46OO5)OC3OC4(C)CCC1C32OO4 (stereo not shown) [Compound 12b, bis-trioxane O-acetic acid] | >−4.30 | >−4.30 | >−4.30 | −5.06 | <−8.30 | >−4.30 | >−4.30 | −5.62 | >−4.30 | −6.40 | −6.45 | >−4.30 | >−4.30 | >−4.30 | −6.23 | >−4.30 | – | – | – | – | Log10TGI50 (EKVX; [1]): >−4.30 log10M; Log10GI50 (EKVX): >−4.30; Log10GI50 (M14): −6.68; Log10GI50 (SK-OV-3; Ovarian Cancer, SK-OV-3): >−4.30; Log10TGI50 (SK-OV-3; SK-OV-3 (Ovarian Cancer), TGI: PG=0): >−4.30 log10M; Log10TGI50 (CAKI-1; CAKI-1 (Renal Cancer), TGI: PG=0): −6.40 log10M; Log10GI50 (CAKI-1; Renal Cancer, CAKI-1): −6.91
2 | C[C@@H]1CC[C@H]2[C@@H](C)C(CC(O)(COC(=O)CCC(=O)O)CC3OC4O[C@]5(C)CC[C@H]6[C@H](C)CC[C@@H]([C@H]3C)C46OO5)OC3O[C@]4(C)CCC1C32OO4 (stereo partly shown) [Compound 9, tertiary alcohol primary succinate ester] | >−4.30 | −4.91 | >−4.30 | −4.97 | −4.45 | >−4.30 | – | −4.88 | >−4.30 | −5.14 | −5.61 | >−4.30 | −4.65 | >−4.30 | −5.69 | >−4.30 | >−4.30 | >−4.30 | −7.67 | >−4.30 | Log10LC50 (NCI-H522): >−4.30 log10M; Log10LC50 (MALME-3M): >−4.30 log10M; Log10GI50 (MALME-3M; Melanoma, MALME-3M): <−8.30; Log10LC50 (NCI/ADR-RES): >−4.30 log10M; Log10LC50 (NCI-H23): >−4.30 log10M; Log10GI50 (NCI-H23): <−8.30; Log10GI50 (SF-268; CNS Cancer, SF-268): −5.48; Log10LC50 (SF-268; SF-268 (CNS Cancer), LC50: PG=−50): >−4.30 log10M; Log10TGI50 (SF-268; SF-268 (CNS Cancer), TGI: PG=0): >−4.30 log10M; Log10LC50 (HOP-62): >−4.30 log10M; Log10GI50 (SF-539): −4.90; Log10LC50 (SF-539; SF-539 (CNS Cancer)): >−4.30 log10M; Log10TGI50 (SF-539; SF-539 (CNS Cancer), TGI: PG=0): −4.50 log10M; Log10GI50 (HCT-116): <−8.30; Log10LC50 (HCT-116): >−4.30 log10M; Log10LC50 (CAKI-1; CAKI-1 (Renal Cancer)): >−4.30 log10M
3 | CC(=O)O[C@H]1C(=O)[C@@]2(C)[C@H]([C@H](OC(=O)c3ccccc3)[C@]3(O)C[C@H](OC(=O)[C@H](O)[C@@H](NC(=O)c4ccccc4)c4ccccc4)C(C)=C1C3(C)C)[C@]1(OC(C)=O)CO[C@@H]1C[C@@H]2O [Paclitaxel, paclitaxel, reference compound] | −11.20 | <−13.00 | −4.19 | −8.61 | >−4.00 | −4.62 | −6.32 | −9.53 | – | −4.46 | −8.48 | >−4.00 | – | −4.80 | −9.67 | −4.82 | >−4.00 | >−4.00 | −8.32 | >−4.00 | Log10LC50 (NCI-H522): >−4.00 log10M; Log10LC50 (M14): −4.13 log10M; Log10GI50 (M14): −11.73; Log10LC50 (BT-549): >−4.00 log10M; Log10GI50 (BT-549): −9.31; Log10LC50 (MALME-3M): −4.11 log10M; Log10GI50 (MDA-MB231/ATCC): −8.54; Log10TGI50 (MDA-MB231/ATCC; MDA-MB231/ATCC (Breast Cancer)): −4.84 log10M; Log10GI50 (SNB-19): −8.98; Log10LC50 (SNB-19): >−4.00 log10M; Log10TGI50 (SNB-19): >−4.00 log10M; Log10LC50 (NCI/ADR-RES): >−4.00 log10M; Log10LC50 (HOP-62): −4.10 log10M; Log10GI50 (SF-539): −11.09; Log10LC50 (SF-539; SF-539 (CNS Cancer)): >−4.00 log10M; Log10GI50 (HCT-116): <−13.00; Log10LC50 (HCT-116): >−4.00 log10M; Log10LC50 (CAKI-1; CAKI-1 (Renal Cancer)): >−4.00 log10M
4 | C[C@@H]1CC[C@H]2[C@@H](C)C(=O)O[C@@H]3O[C@]4(C)CC[C@@H]1[C@]32OO4 [Artemisinin] | – | – | >−4.00 | −4.31 | >−4.00 | >−4.00 | >−4.00 | – | >−4.00 | −4.06 | – | – | >−4.00 | >−4.00 | >−4.00 | >−4.00 | >−4.00 | >−4.00 | −4.08 | >−4.00 | Log10LC50 (EKVX; EKVX (Non-Small Cell Lung Cancer), LC50: PG=−50): >−4.00 log10M; Log10TGI50 (EKVX; [1]): >−4.00 log10M; Log10GI50 (EKVX): >−4.00; Log10LC50 (M14): >−4.00 log10M; Log10LC50 (BT-549): >−4.00 log10M; Log10GI50 (BT-549): −4.06; Log10LC50 (MALME-3M): >−4.00 log10M; Log10GI50 (MDA-MB231/ATCC): −4.20; Log10LC50 (MDA-MB231/ATCC; MDA-MB231/ATCC (Breast Cancer), LC50: PG=−50): >−4.00 log10M; Log10TGI50 (MDA-MB231/ATCC; MDA-MB231/ATCC (Breast Cancer)): >−4.00 log10M; Log10GI50 (SNB-19): >−4.00; Log10LC50 (SNB-19): >−4.00 log10M; Log10TGI50 (SNB-19): >−4.00 log10M; Log10LC50 (NCI-H23): >−4.00 log10M; Log10GI50 (NCI-H23): >−4.00; Log10LC50 (HOP-62): >−4.00 log10M; Log10GI50 (HCT-116): −4.18; Log10LC50 (HCT-116): >−4.00 log10M
